One series has as its target GLP-1R (Homo sapiens, UniProt P43220). The series can be described thus: ebBRET pathway activation (effector membrane translocation, 15 pathways) at the plasma membrane (rGFP-CAAX). The format is cell-based. The settings on record: plasma membrane rGFP-CAAX, HEK293, agonist incubation 0 min, normalized to the highest responding drug, F test P < 0.00625, n=3-6.
Series [1] is described as follows: Adverse drug event analysis (FAERS, log likelihood ratio). The settings on record: Supplementary Fig. 21; for proportion, Pancreatic disease: ADR_TERM Pancreatic disease.

GLP-1R, sequence (P43220 24-463): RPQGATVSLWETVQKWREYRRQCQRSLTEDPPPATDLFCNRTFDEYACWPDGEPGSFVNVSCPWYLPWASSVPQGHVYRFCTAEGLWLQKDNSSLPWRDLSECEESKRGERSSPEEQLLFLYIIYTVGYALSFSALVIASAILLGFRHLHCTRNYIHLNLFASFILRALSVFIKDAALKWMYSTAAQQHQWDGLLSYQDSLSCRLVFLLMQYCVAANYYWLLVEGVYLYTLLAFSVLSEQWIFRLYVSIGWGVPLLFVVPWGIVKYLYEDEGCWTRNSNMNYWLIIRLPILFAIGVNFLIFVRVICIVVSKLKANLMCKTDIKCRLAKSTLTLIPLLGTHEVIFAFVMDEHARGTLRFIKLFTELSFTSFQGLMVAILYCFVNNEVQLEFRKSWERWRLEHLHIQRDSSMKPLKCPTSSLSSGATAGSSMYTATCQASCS

As for `CC[C@H](C)[C@H](NC(=O)[C@H](Cc1ccccc1)NC(=O)[C@H](CCC(=O)O)NC(=O)[C@H](CCCCN)NC(=O)[C@H](C)NC(=O)[C@H](C)NC(=O)[C@H](CCC(N)=O)NC(=O)CNC(=O)[C@H](CCC(=O)O)NC(=O)[C@H](CC(C)C)NC(=O)[C@H](Cc1ccc(O)cc1)NC(=O)[C@H](CO)NC(=O)[C@H](CO)NC(=O)[C@@H](NC(=O)[C@H](CC(=O)O)NC(=O)[C@H](CO)NC(=O)[C@@H](NC(=O)[C@H](Cc1ccccc1)NC(=O)[C@@H](NC(=O)CNC(=O)[C@H](CCC(=O)O)NC(=O)[C@H](C)NC(=O)[C@H](Cc1c[nH]cn1)NC(=O)[C@H](CCCNC(=N)N)NC(=O)[C@H](CCC(=O)O)NC(=O)[C@H](Cc1ccccc1)NC(=O)[C@H](CCC(=O)O)NC(=O)[C@H](CC(=O)O)NC(=O)[C@@H](N)Cc1c[nH]cn1)[C@@H](C)O)[C@@H](C)O)C(C)C)C(=O)N[C@@H](C)C(=O)N[C@@H](Cc1c[nH]c2ccccc12)C(=O)N[C@@H](CC(C)C)C(=O)N[C@H](C(=O)N[C@@H](CCCCN)C(=O)NCC(=O)N[C@@H](CCCNC(=N)N)C(=O)NCC(=O)O)C(C)C` [GLP-1 (1-37)], the “Efficacy (normalized), GRK2/Gβγ” value on GLP-1R (GRK2-D110A-RlucII) was found to be 0. The “Efficacy (normalized), Gα13” value at GLP-1R (PDZRhoGEF-RlucII) was 0. Also, on GLP-1R (Rap1Gap-RlucII), the “Efficacy (normalized), Gαi1” value is 0; the “Efficacy (normalized), Gαi2” value came out at 0; the “Efficacy (normalized), Gαi3” value came to 0; the “Efficacy (normalized), GαoA” value is recorded as 0. On GLP-1R (Rap1Gap-RlucII), the “Efficacy (normalized), GαoB” value is 0 and the “Efficacy (normalized), Gαz” value worked out at 0. Also, the “Efficacy (normalized), Gαs” value on GLP-1R (Rluc8-mGs) is reported as 0. At GLP-1R (p63RhoGEF-RlucII), the “Efficacy (normalized), Gα11” value worked out at 0; the “Efficacy (normalized), Gα14” value is given as 0; the “Efficacy (normalized), Gα15” value worked out at 0; the “Efficacy (normalized), Gαq” value is given as 0. Moreover, the “Efficacy (normalized), βARR2” value at GLP-1R (β-arrestin-2-RlucII) amounted to 0.

Regarding `CCCCCCCCCCCCCCCC(=O)N[C@@H](CCC(=O)NCCCC[C@H](NC(=O)[C@H](C)NC(=O)[C@H](C)NC(=O)[C@H](CCC(N)=O)NC(=O)CNC(=O)[C@H](CCC(=O)O)NC(=O)[C@H](CC(C)C)NC(=O)[C@H](Cc1ccc(O)cc1)NC(=O)[C@H](CO)NC(=O)[C@H](CO)NC(=O)[C@@H](NC(=O)[C@H](CC(=O)O)NC(=O)[C@H](CO)NC(=O)[C@@H](NC(=O)[C@H](Cc1ccccc1)NC(=O)[C@@H](NC(=O)CNC(=O)[C@H](CCC(=O)O)NC(=O)[C@H](C)NC(=O)[C@@H](N)Cc1cnc[nH]1)[C@@H](C)O)[C@@H](C)O)C(C)C)C(=O)N[C@@H](CCC(=O)O)C(=O)N[C@@H](Cc1ccccc1)C(=O)N[C@H](C(=O)N[C@@H](C)C(=O)N[C@@H](Cc1c[nH]c2ccccc12)C(=O)N[C@@H](CC(C)C)C(=O)N[C@H](C(=O)N[C@@H](CCCNC(=N)N)C(=O)NCC(=O)N[C@@H](CCCNC(=N)N)C(=O)NCC(=O)O)C(C)C)[C@@H](C)CC)C(=O)O` [Liraglutide], the “proportion, Abdominal pain” value in series [1] (ADR_TERM Abdominal pain) stood at 0.02341. Further, in series [1] (ADR_TERM Adenocarcinoma pancreas), the “proportion, Adenocarcinoma pancreas” value stood at 0.01752. Moreover, in series [1] (ADR_TERM Eructation), the “proportion, Eructation” value came out at 0.03019. Also, in series [1] (ADR_TERM Nausea), the “proportion, Nausea” value amounted to 0.07705. Besides, the “proportion, Pancreatic disease” value turned out to be 0.08817 in series [1] (first group), 0.1539 in series [1] (fourth group (r25-r28)), 0.02656 in series [1] (second group (r20)) and 0.5446 in series [1] (third group (r21-r24)). For the same molecule, the “proportion, Vomiting” value in series [1] (ADR_TERM Vomiting) stood at 0.03854.

For the origin of these results see PMC10562414, “GLP-1R signaling neighborhoods associate with the susceptibility to adverse drug reactions of incretin mimetics” (Nature Communications, 2023).
